{"source": "patent US20250206773A1", "about": "“FORMS AND COMPOSITIONS OF SODIUM CHENODEOXYCHOLATE” (Syntis Bio, Inc., priority 2022, published 2025)", "format_in_all_cases": "physicochemical", "key": {"[1]": {"test": "Storage of screening solids at RT, XRPD after storage", "procedure": "Form S2 was obtained from experiment VDS05 with EtOH after 12 days of diffusion at 50° C. […] The HPLC purity of the tested material was 92.1% at 212 nm. TG/DSC analysis of this material was consistent with that obtained from experiments SAS48, SDGR01, and SDGR07. XRPD analysis of this material is shown in FIG. 33, and the corresponding data summarized in Table S2: Form S8 was obtained in mixture with starting material ([…]) from experiment VDS12 with MEK after 12 days of diffusion at 50° C. […] The HPLC purity of the tested material was 93.7% at 212 nm. An XRPD spectrum of the material from experiment VDS12 is shown in FIG. 34A, as compared to NaCDC Form B, and the corresponding data are summarized in Table S8: The precipitate that formed in the water solution in the presence of acetone (as anti-solvent) was stored at RT for up to 3 weeks before it was subjected to thermal analysis. In this case, the majority of ASDS03 solid was dried at RT on filter paper up to 2 h and after that the recovered material was analyzed by XRPD. […] (Tonset) was observed. […] The precipitates that formed in the water solution in the presence of acetonitrile (as anti-solvent) from experiments ASDS04 and ASDS08 were stored at RT up to 24 days before being subjected to thermal analysis. In this case, the majority of solids from experiments ASDS04 and ASDS08 were dried at RT on filter paper for 1-2 h, and after that the recovered materials were analyzed by XRPD. […] The corresponding data for the initial material obtained from experiment […]) are summarized below: The precipitate that formed into the TFE solution in the presence of MTBE (as anti-solvent) was stored at RT for 22 days before being subjected to thermal analysis. In this case, the majority of the material from experiment ASDS19 was dried at RT on filter paper up to 2 h, and after that the recovered material was analyzed by XRPD. […] Considering that Form S12 was obtained as mixture with amorphous phase and with low crystallinity, there is a possibility that Form S12 is the same as Form S15. The XRPD data from experiment ASDS19 before storage for 22 days is summarized in Table S12, and the XRPD data from experiment ASDS19 after storage for 22 days is summarized in Table S15. The precipitate that formed into the TFE solution in the presence of DIPE (as anti-solvent) was stored at RT for 22 days before being subjected to thermal analysis. In this case, the majority of material obtained from experiment ASDS16 was dried at RT on filter paper up to 2 h, and after that, the recovered material was analyzed by XRPD. […] The precipitate that formed into the water solution in the presence of acetone (as anti-solvent) was stored at RT for 2 weeks before being subjected to thermal analysis. In this case, the majority of material obtained from experiment RAS11 was dried at RT on filter paper for 1-2 h, and after that the recovered material was analyzed by XRPD. […] The precipitate that formed into the TFE solution in the presence of iPrOAC (as anti-solvent) was stored at RT for 2 weeks before being subjected to thermal analysis. In this case, the majority of material from experiment RAS34 dried at RT on filter paper for 1-2 h, and after that the recovered material was analyzed by XRPD. […] The precipitate that formed into the TFE solution in the presence of EtOAc (as anti-solvent) was stored at RT for 2 weeks before being subjected to thermal analysis. In this case, the majority of material obtained from experiment RAS33 was dried at RT on filter paper for 1-2 h, and after that the recovered material was analyzed by XRPD. […] The precipitate that formed into the TFE solution in the presence of MTBE (as anti-solvent) was stored at RT for 2 weeks before being subjected to thermal analysis. In this case, the majority of the material obtained from experiment RAS36 that had been stored for 2 weeks was dried at RT on filter paper for 1-2 h, and after that the recovered material was analyzed by XRPD."}, "[2]": {"test": "Exposure to moist air (RH 95%, room temperature), XRPD before/after", "conditions": "15-20 hours at 95% humidity", "procedure": "FIG. 4 is a series of XRPD patterns, showing NaCDC Form A before (thick line) and after (thin line) 15 hours of exposure to RH 95% at room temperature. FIG. 8 is a series of XRPD patterns, showing NaCDC Form B before (thick line) and after (thin line) 15 hours of exposure to RH 95% at room temperature."}, "[3]": {"test": "Intrinsic dissolution, USP rotating disk apparatus", "procedure": "For the intrinsic dissolution studies, the following HPLC method was used: [table] Intrinsic dissolution profiles of NaCDC Form A and Form B were determined from a drug disk of constant surface area using a USP rotating disk apparatus in phosphate buffer (pH 7.4) at 37° C. […] A typical apparatus consisted of a punch and a die, whose base is attached to a surface plate. […] The punch was then inserted in the die cavity and the test material was compressed with a hydraulic press. A non-disintegrating compact of the material was formed in the die cavity with a single face of defined area exposed on the bottom of the die. The die assembly was then attached to a shaft with a holder and the surface plate was removed. The shaft holding the die assembly was positioned into the dissolution medium at a distance not less than 1.0 cm from the bottom of the vessel. In this procedure, fluid flow was generated by the rotation of the die. The amount of material dissolved was measured as a function of time. In particular, the cumulative amount dissolved at each time point was corrected for losses due to sampling. […] Method parameters are summarized below: [table]"}, "[4]": {"test": "Dynamic vapor sorption (DVS) hygroscopicity", "conditions": "25° C.", "procedure": "DVS measurements were performed with a SMS—DVS Intrinsic. The sample size was about 50 mg, accurately weighed. The measurement was performed at 25° C., the relative humidity (RH) range investigated was 40-90-0-90% RH with 10% RH steps. After each RH change, the mass of the sample was allowed to stabilize (waiting time 10 to 60 minutes, stabilization criterion ≤0.002 g for 10 minutes). The hygroscopicity of the sample was calculated as follows: [formula] • where: • W1: weight of sample at the start of the experiment (25° C. and 40% RH) • W2: weight of sample at 25° C. and 80% RH in the first sorption cycle High Pressure Liquid Chromatography (HPLC)"}}}
{"smiles": "C[C@H](CCC(=O)[O-])[C@H]1CC[C@H]2[C@@H]3[C@H](O)C[C@@H]4C[C@H](O)CC[C@]4(C)[C@H]3CC[C@]12C.[Na+]", "note": "[Form S2, sodium chenodeoxycholate]", "values": [{"measurement": "form on storage", "setting": "[1]; VDS05 material (EtOH vapor, 12 days, 50° C.), storage conditions at RT", "result": "remained stable"}]}
{"smiles": "C[C@H](CCC(=O)[O-])[C@H]1CC[C@H]2[C@@H]3[C@H](O)C[C@@H]4C[C@H](O)CC[C@]4(C)[C@H]3CC[C@]12C.[Na+]", "note": "[Form S1, sodium chenodeoxycholate]", "values": [{"measurement": "XRPD form after storage", "setting": "[1]; ASDS03 precipitate in water/acetone, stored at RT up to 3 weeks, dried on filter paper", "result": "transformed into Form S14"}, {"measurement": "XRPD form after storage", "setting": "[1]; RAS11 precipitate in water/acetone, stored at RT for 2 weeks", "result": "high tendency of amorphization"}]}
{"smiles": "C[C@H](CCC(=O)[O-])[C@H]1CC[C@H]2[C@@H]3[C@H](O)C[C@@H]4C[C@H](O)CC[C@]4(C)[C@H]3CC[C@]12C.[Na+]", "note": "[Form S13, sodium chenodeoxycholate]", "values": [{"measurement": "XRPD form after storage", "setting": "[1]; ASDS16 precipitate in TFE/DIPE, stored at RT for 22 days", "result": "remained unchanged"}]}
{"smiles": "C[C@H](CCC(=O)[O-])[C@H]1CC[C@H]2[C@@H]3[C@H](O)C[C@@H]4C[C@H](O)CC[C@]4(C)[C@H]3CC[C@]12C.[Na+]", "note": "[Form S9-a, sodium chenodeoxycholate]", "values": [{"measurement": "XRPD form after storage", "setting": "[1]; ASDS04 precipitate in water/acetonitrile, stored at RT 22 days", "result": "remained unchanged"}]}
{"smiles": "C[C@H](CCC(=O)[O-])[C@H]1CC[C@H]2[C@@H]3[C@H](O)C[C@@H]4C[C@H](O)CC[C@]4(C)[C@H]3CC[C@]12C.[Na+]", "note": "[Form S3, sodium chenodeoxycholate]", "values": [{"measurement": "XRPD form after storage", "setting": "[1]; RAS34 precipitate in TFE/iPrOAc, stored at RT for 2 weeks", "result": "remained unchanged"}]}
{"smiles": "C[C@H](CCC(=O)[O-])[C@H]1CC[C@H]2[C@@H]3[C@H](O)C[C@@H]4C[C@H](O)CC[C@]4(C)[C@H]3CC[C@]12C.[Na+]", "note": "[Form S12, sodium chenodeoxycholate]", "values": [{"measurement": "XRPD form after storage", "setting": "[1]; ASDS19 precipitate in TFE/MTBE, stored at RT for 22 days", "result": "transformed into Form S15"}]}
{"smiles": "C[C@H](CCC(=O)[O-])[C@H]1CC[C@H]2[C@@H]3[C@H](O)C[C@@H]4C[C@H](O)CC[C@]4(C)[C@H]3CC[C@]12C.[Na+]", "note": "[Form S15, sodium chenodeoxycholate]", "values": [{"measurement": "XRPD form after storage", "setting": "[1]; RAS36 precipitate in TFE/MTBE, stored at RT for 2 weeks", "result": "transformed into Form S14"}]}
{"smiles": "C[C@H](CCC(=O)[O-])[C@H]1CC[C@H]2[C@@H]3[C@H](O)C[C@@H]4C[C@H](O)CC[C@]4(C)[C@H]3CC[C@]12C.[Na+]", "note": "[Form S8, sodium chenodeoxycholate]", "values": [{"measurement": "form on storage", "setting": "[1]; VDS12 material (MEK vapor, 50° C.), mixture with NaCDC Form B, storage at RT", "result": "remained stable"}]}
{"smiles": "C[C@H](CCC(=O)[O-])[C@H]1CC[C@H]2[C@@H]3[C@H](O)C[C@@H]4C[C@H](O)CC[C@]4(C)[C@H]3CC[C@]12C.[Na+]", "note": "[Form A, sodium chenodeoxycholate]", "values": [{"measurement": "effect of exposure to moist air (XRPD)", "setting": "[2]", "result": "partial amorphization and loss of crystallinity"}, {"measurement": "solid form after compression (XRPD)", "setting": "[3]; 2 tons for 2 minutes", "result": "no change in solid form"}, {"measurement": "IDR (intrinsic dissolution rate)", "setting": "[3]; USP phosphate buffer pH 7.4, 37° C., 100 rpm, disk 0.5024 cm^2", "result": 0.6959, "unit": "mg · min^−1 · cm^−2"}, {"measurement": "hygroscopicity by DVS", "setting": "[4]", "result": "hygroscopic"}, {"measurement": "weight change in the first sorption cycle (DVS)", "setting": "[4]; 40% RH to 80% RH", "result": 14.1, "unit": "%"}]}
{"smiles": "C[C@H](CCC(=O)[O-])[C@H]1CC[C@H]2[C@@H]3[C@H](O)C[C@@H]4C[C@H](O)CC[C@]4(C)[C@H]3CC[C@]12C.[Na+]", "note": "[Form S9-b, sodium chenodeoxycholate]", "values": [{"measurement": "XRPD form after storage", "setting": "[1]; ASDS08 precipitate in water/acetonitrile, stored at RT 23 days", "result": "transformed into a form similar to Form S9-a"}]}
{"smiles": "C[C@H](CCC(=O)[O-])[C@H]1CC[C@H]2[C@@H]3[C@H](O)C[C@@H]4C[C@H](O)CC[C@]4(C)[C@H]3CC[C@]12C.[Na+]", "note": "[Form S6, sodium chenodeoxycholate]", "values": [{"measurement": "XRPD form after storage", "setting": "[1]; RAS33 precipitate in TFE/EtOAc, stored at RT for 2 weeks", "result": "transformed into Form S1"}]}
